These results are taken from patent US12337010B2, “Compositions and methods of treatment using nicotinamide mononucleotide” (Washington University, priority 2017, dated 2025).

For the assay, the system named is Slc12a8 mRNA expression. Put plainly: Slc12a8 mRNA expression by quantitative RT-PCR in cells and ex vivo small intestine explants. The class given is cell-based, mouse. The conditions noted are these: FK866 plus NMN; primary hepatocytes, NIH3T3 fibroblasts (24 h), jejunum and ileum explants (4 h). On the procedure:
Cell culture and ex vivo small intestine explant culture. […] For Slc12a8 mRNA expression analysis, 2.5×10^5 cells per well were incubated in 6-well plates with DMEM with 1% FBS containing 0.1% DMSO or 100 nM FK866 or 100 nM FK866 plus 100 μM NMN for 24 h. Small intestines from 3-month old B6 male mice were cut into three segments with duodenum/jejunum/ileum length ratios of 1:3:2 (Wang, H. H., et al., Hepatology 45, 998-1006, 2007). […] Cellular and tissue RNA samples were analyzed by quantitative RT-PCR, as described previously (Stein, L. R. & Imai, S., EMBO J., 33, 1321-1340, 2014).
The amounts of adenosine produced were determined by HPLC. […] Silencing efficiencies were evaluated by quantitative RT-PCR.
FIG. 2 illustrates that Slc12a8 is highly expressed in the small intestine and pancreas and moderately in the liver and white adipose tissue of B6 male mice at 3 months of age (n=3 mice). […] Cells were treated with these compounds for 24 h (n=4 mice for hepatocytes treated with DMSO and FK866, and n=3 mice for hepatocytes treated with FK866 and NMN; n=6 for NIH3T3 cells; analyzed using ANOVA with Tukey's test). FIG. 5 illustrates surface and intracellular Slc12a8 protein expression levels were measured by flow cytometry analysis in NIH3T3 cells treated with FK866 or FK866 plus NMN for 48h. […]

For the compound `NC(=O)c1ccc[n+]([C@@H]2O[C@H](COP(=O)([O-])O)[C@@H](O)[C@H]2O)c1` [NMN, nicotinamide mononucleotide], the “Slc12a8 expression induced by FK866” value was “suppressed”.
